Results on nine molecules are retold here after patent US8987195B2 (priority 2012, dated 2015).

Like-named read-outs stand apart in the source and are kept apart here.

By IC50 is commonly meant the midpoint of a concentration-inhibition curve. By EC50 is commonly meant the midpoint of the concentration-response curve.

In test [1] the target is HCV NS3/4A protease A156T mutant (Hepatitis C virus genotype 1b, UniProt P26663, A1182T). Nature of the test: HCV NS3/4A protease time-resolved fluorescence (TRF) assay, Ki against A156T mutant. It counts as biochemical. As to the method:
(§1) Measuring NS3/4A Inhibitory Activity (Ki) Against Genotype 1b, Against A156T Mutants and Against Genotype 3a
(§2) One assay for measuring inhibitory activity is HCV NS3 protease time-resolved fluorescence (TRF) assay as described below and in Mao et al., Anal. Biochem. 373:1-8, 2008 and International Patent Application Publication WO 2006/102087. A NS3 protease assay can be performed, for example, in a final volume of 20 μl assay buffer containing 50 mM HEPES, pH 7.5, 150 mM NaCl, 15% glycerol, 0.15% TRITON X-100, 10 mM DTT, and 0.1% PEG 8000. NS3 and NS4A protease is pre-incubated with various concentrations of inhibitors in DMSO for 30 min. The reaction is initiated by adding the TRF peptide substrate (final concentration 25 nM). NS3 mediated hydrolysis of the substrate was run for 2.5 hours at room temperature. Product fluorescence is detected using A Pherastar Plus plate reader (BMG) or Envision (Perkin Elmer Life and Analytical Sciences with excitation at 340 nm and emission at 615 nm using the appropriate delay time optimized for the europium fluorescence probe. Testing concentrations of different enzyme forms are selected to result in a signal to background ratio (S/B) of 10-30. IC50 values are derived using a standard four-parameter fit to the data. Ki values are derived from IC50 values using the following formula, IC50=Ki(1+[S]/KM), Eqn (1), where [S] is the concentration of substrate peptide in the reaction and KM is the Michaelis constant. See P. Gallinari et al., 38 BIOCHEM. 5620-32 (1999); P. Gallinari et al., 72 J. VIROL. 6758-69 (1998); M. Taliani et al., 240 ANAL. BIOCHEM. 60-67 (1996); Mao et al., Analytical Biochemistry 373: 1-8, 2008.
(§3) The assay described above was run against genotype 1b at a concentration of 0.2 nM, against A156T mutant strains at a concentration of 0.4 nM, and against genotype 3a at a concentration of 0.025 nM.

The target in test [2] is HCV NS3/4A protease genotype 3a (Hepatitis C virus genotype 3a, UniProt Q81495). Nature of the test: HCV NS3/4A protease time-resolved fluorescence (TRF) assay, Ki against genotype 3a. The format is biochemical. The procedure:
as §1, §2, §3

The next test relates to HCV genotype 1b replicon. Nature of the test: HCV replicon assay, genotype 1b replicon EC50. The settings on record: Hepatitis C virus, genotype 1b replicon, read-out: EC50 [gt-1b]. It counts as cell-based, Hepatitis C virus. A digest of the protocol: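 Stable neomycin phosphotransferase-encoding replicon cell lines, kept under G418 selection beforehand, were plated with a compound dilution series without G418 and incubated 24-48 hours. Replicon RNA was then quantified, or luciferase activity read. EC50 was calculated as percent of DMSO control by four-parameter fit.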

The target in test [3] is HCV NS3/4A protease genotype 1b (Hepatitis C virus genotype 1b, UniProt P26663). Nature of the test: HCV NS3/4A protease time-resolved fluorescence (TRF) assay, Ki against genotype 1b. The format is biochemical. A digest of the protocol:
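Enzyme 0.2 nM 1b / 0.4 nM A156T / 0.025 nM 3a; 30 min preinc. w/ cpd; 25 nM TRF peptide; 2.5 h RT; ex 340/em 615 time-delayed; 4-param IC50 → Ki = IC50/(1+[S]/KM).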

Where [4] appears, read: IC50 [gt-1b] (nM), NS3/4A genotype 1b, enzyme 0.2 nM.
Where [5] appears, read: NS3/4A gt-1b A156T mutant, enzyme 0.4 nM, read-out: IC50 [gt-1b A156T].
Where [6] appears, read: NS3/4A gt-1b A156T mutant, enzyme 0.4 nM, K+ salt, read-out: IC50 [gt-1b A156T].
[7] abbreviates: IC50 [gt-1b] (nM), NS3/4A genotype 1b, enzyme 0.2 nM, K+ salt.
The mark [8] stands for this setting: NS3/4A protease TRF assay, A156T mutant enzyme 0.4 nM, read-out: IC50 [gt-1b A156T].
[9] abbreviates: IC50 [gt-1b], NS3/4A protease TRF assay, genotype 1b enzyme 0.2 nM.

For the molecule `COc1ccc2nc(C(F)(F)F)c3c(c2c1)CC[C@]1(C[C@H]2C(=O)N[C@]4(C(=O)NS(=O)(=O)C5(C)CC5)C[C@H]4/C=C\CCCCC[C@H](NC(=O)OCC(C)C)C(=O)N2C1)O3` [Example 6, Isobutyl ((2R,6S,13aS,14aR,16aS,Z)-9′-methoxy-14a-(((1-methylcyclopropyl)sulfonyl)carbamoyl)-5,16-dioxo-5′-(trifluoromethyl)-1′,2′,3,5,6,7,8,9,10,11,13a,14,14a, 15,16,16a-hexadecahydro-1H-spiro[cyclopropa[e]pyrrolo[1,2-a][1,4]diazacyclopentadecine-2,3′-pyrano[2,3-c]quinolin]-6-yl)carbamate], the half-maximal inhibitory concentration (IC50) in test [1] is 0.591 nM; in test [2], 0.53 nM; in test [3] (setting [4]), 0.016 nM. Moreover, the EC50 in the test with HCV genotype 1b replicon was 1.23 nM.
Regarding `CC(C)(C)OC(=O)N[C@H]1CCCCC/C=C\[C@@H]2C[C@@]2(C(=O)NS(=O)(=O)C2(C)CC2)NC(=O)[C@@H]2C[C@]3(CCc4c(c(C(F)(F)F)nc5ccc(OCCCN6CCOCC6)cc45)O3)CN2C1=O` [Example 50, tert-Butyl ((2R,6S,13aS,14aR,16aS,Z)-14a-(((1-methylcyclopropyl)sulfonyl)carbamoyl)-9′-(3-morpholinopropoxy)-5,16-dioxo-5′-(trifluoromethyl)-1′,2′,3,5,6,7,8,9, 10,11,13a,14,14a,15,16,16a-hexadecahydro-1H-spiro[cyclopropa[e]pyrrolo[1,2-a][1,4]diazacyclopentadecine-2,3′-pyrano[2,3-c]quinolin]-6-yl)carbamate], the results for the 50% inhibitory concentration (IC50) in test [1] (setting [5]), in test [2] and in test [3] (setting [4]) were 0.0786 nM, 0.0965 nM and 0.01 nM, respectively. In addition, in the test on HCV genotype 1b replicon, the EC50 was determined as 0.284 nM.
For `Cc1nc2ccccc2c2c1O[C@]1(CC2)C[C@H]2C(=O)N[C@]3(C(=O)NS(=O)(=O)C4(C)CC4)C[C@H]3/C=C\CCCCC[C@H](NC(=O)OC(C)(C)C)C(=O)N2C1` [Example 74, tert-butyl [(2R,6S,12Z,13aS,14aR,16aS)-5′-methyl-14a-{[(1-methylcyclopropyl)sulfonyl]carbamoyl}-5,16-dioxo-1,1′,2′,5,6,7,8,9,10,11,13a,14,14a,15,16,16a-hexadecahydrospiro[cyclopropa[e]pyrrolo[1,2-a][1,4]diazacyclopentadecine-2,3′-pyrano[2,3-c]quinolin]-6-yl]carbamate] the same measures were 0.124 nM, 0.572 nM, 0.008 nM and 2.48 nM.
With `Cc1nc2ccc(Cl)cc2c2c1O[C@]1(CC2)C[C@H]2C(=O)N[C@]3(C(=O)NS(=O)(=O)C4(C)CC4)C[C@H]3/C=C\CCCCC[C@H](NC(=O)OCC(C)C)C(=O)N2C1` [Example 189, 2-methylpropyl [(2R,6S,12Z,13aS,14aR,16aS)-9′-chloro-5′-methyl-14a-{[(1-methylcyclopropyl)sulfonyl]carbamoyl}-5,16-dioxo-1,1′,2′,5,6,7,8,9,10,11,13a,14,14a,15,16,16a-hexadecahydrospiro[cyclopropa[e]pyrrolo[1,2-a][1,4]diazacyclopentadecine-2,3′-pyrano[2,3-c]quinolin]-6-yl]carbamate], the half-maximal inhibitory concentration (IC50) stood at 0.062 nM in test [1] (setting [6]), 0.394 nM in test [2] and 0.002 nM in test [3] (setting [7]). Besides, the EC50 in the test on HCV genotype 1b replicon (K+ salt) is 6.42 nM.
The corresponding values for `Cc1nc2cc(F)c(F)cc2c2c1O[C@]1(CC2)C[C@H]2C(=O)N[C@]3(C(=O)NS(=O)(=O)C4(C)CC4)C[C@H]3/C=C\CCCCC[C@H](NC(=O)OC(C)C)C(=O)N2C1` [Example 194, propan-2-yl [(2R,6S,12Z,13aS,14aR,16aS)-8′,9′-difluoro-5′-methyl-14a-{[(1-methylcyclopropyl)sulfonyl]carbamoyl}-5,16-dioxo-1,1′,2′,5,6,7,8,9,10,11,13a,14,14a,15,16,16a-hexadecahydrospiro[cyclopropa[e]pyrrolo[1,2-a][1,4]diazacyclopentadecine-2,3′-pyrano[2,3-c]quinolin]-6-yl]carbamate] are 0.0541 nM, 0.994 nM, 0.007 nM and 8.28 nM.
As for `COc1cc(Cl)c2nc(C(F)(F)F)c3c(c2c1)CC[C@]1(C[C@H]2C(=O)N[C@]4(C(=O)NS(=O)(=O)C5(C)CC5)C[C@H]4/C=C\CCCCC[C@H](NC(=O)OCC(C)C)C(=O)N2C1)O3` [Example 399, 2-methylpropyl [(2R,6S,12Z,13aS,14aR,16aS)-7′-chloro-9′-methoxy-14a-{[(1-methylcyclopropyl)sulfonyl]carbamoyl}-5,16-dioxo-5′-(trifluoromethyl)-1,1′,2′,5,6,7,8,9,10,11,13a,14,14a,15,16,16a-hexadecahydrospiro[cyclopropa[e]pyrrolo[1,2-a][1,4]diazacyclopentadecine-2,3′-pyrano[2,3-c]quinolin]-6-yl]carbamate], the IC50 in test [1] (setting [8]) worked out at 1.45 nM; in test [2], 6.45 nM; in test [3] (setting [9]), 0.027 nM.
The corresponding values for `COc1ccc2nc(C(F)(F)F)c3c(c2c1)[C@](C)(O)C[C@]1(C[C@H]2C(=O)N[C@]4(C(=O)NS(=O)(=O)C5(C)CC5)C[C@H]4/C=C\CCCCC[C@H](NC(=O)OC4(C)CCC4)C(=O)N2C1)O3` [Example 507, 1-methylcyclobutyl [(1′R,2S,6S,12Z,13aS,14aR,16aS)-1′-hydroxy-9′-methoxy-1′-methyl-14a-{[(1-methylcyclopropyl)sulfonyl]carbamoyl}-5,16-dioxo-5′-(trifluoromethyl)-1,1′,2′,5,6,7,8,9,10,11,13a,14,14a,15,16,16a-hexadecahydrospiro[cyclopropa[e]pyrrolo[1,2-a][1,4]diazacyclopentadecine-2,3′-pyrano[2,3-c]quinolin]-6-yl]carbamate] are 2.37 nM, 4.45 nM and 0.025 nM.
As for `COCCCOc1ccc2nc(C(F)(F)F)c3c(c2c1)CC[C@]1(C[C@H]2C(=O)N[C@]4(C(=O)NS(=O)(=O)C5(C)CC5)C[C@H]4/C=C\CCCCC[C@H](NC(=O)OC4(C)CCC4)C(=O)N2C1)O3` [Example 522, 1-methylcyclobutyl [(2R,6S,12Z,13aS,14aR,16aS)-9′-(3-methoxypropoxy)-14a-{[(1-methylcyclopropyl)sulfonyl]carbamoyl}-5,16-dioxo-5′-(trifluoromethyl)-1,1′,2′,5,6,7,8,9,10,11,13a,14,14a,15,16,16a-hexadecahydrospiro[cyclopropa[e]pyrrolo[1,2-a][1,4]diazacyclopentadecine-2,3′-pyrano[2,3-c]quinolin]-6-yl]carbamate], the 50% inhibitory concentration (IC50) in test [1] (NS3/4A protease TRF assay, A156T mutant enzyme 0.4 nM, K+ salt, read-out: IC50 [gt-1b A156T]) came out at 0.281 nM; in test [2] it was 0.311 nM; in test [3] (IC50 [gt-1b], NS3/4A protease TRF assay, genotype 1b enzyme 0.2 nM, K+ salt) it was 0.005 nM.
For the molecule `COc1ccc2nc(C(F)F)c3c(c2n1)CC[C@]1(C[C@H]2C(=O)N[C@]4(C(=O)NS(=O)(=O)C5(C)CC5)C[C@H]4/C=C\CCCCC[C@H](NC(=O)O[C@@H]4C[C@@H]5C[C@@H]5C4)C(=O)N2C1)O3` [Example 524, (1R,3r,5S)-bicyclo[3.1.0]hex-3-yl [(2R,6S,12Z,13aS,14aR,16aS)-6′-(difluoromethyl)-2′-methoxy-14a-{[(1-methylcyclopropyl)sulfonyl]carbamoyl}-5,16-dioxo-1,5,6,7,8,9,9′,10,10′,11,13a,14,14a,15,16,16a-hexadecahydrospiro[cyclopropa[e]pyrrolo[1,2-a][1,4]diazacyclopentadecine-2,8′-pyrano[2,3-c][1,5]naphthyridin]-6-yl]carbamate], the 50% inhibitory concentration (IC50) in test [1] (setting [8]) came out at 0.182 nM; in test [2], 0.109 nM; in test [3] (setting [9]), 0.003 nM.
